Holding throughout (assay): Uptake transporter inhibition
What all share (type): in vitro ADME

The target in assay [1] is T1, OAT1 (Homo sapiens, UniProt Q4U2R8).
T1 sequence (Q4U2R8 1-563): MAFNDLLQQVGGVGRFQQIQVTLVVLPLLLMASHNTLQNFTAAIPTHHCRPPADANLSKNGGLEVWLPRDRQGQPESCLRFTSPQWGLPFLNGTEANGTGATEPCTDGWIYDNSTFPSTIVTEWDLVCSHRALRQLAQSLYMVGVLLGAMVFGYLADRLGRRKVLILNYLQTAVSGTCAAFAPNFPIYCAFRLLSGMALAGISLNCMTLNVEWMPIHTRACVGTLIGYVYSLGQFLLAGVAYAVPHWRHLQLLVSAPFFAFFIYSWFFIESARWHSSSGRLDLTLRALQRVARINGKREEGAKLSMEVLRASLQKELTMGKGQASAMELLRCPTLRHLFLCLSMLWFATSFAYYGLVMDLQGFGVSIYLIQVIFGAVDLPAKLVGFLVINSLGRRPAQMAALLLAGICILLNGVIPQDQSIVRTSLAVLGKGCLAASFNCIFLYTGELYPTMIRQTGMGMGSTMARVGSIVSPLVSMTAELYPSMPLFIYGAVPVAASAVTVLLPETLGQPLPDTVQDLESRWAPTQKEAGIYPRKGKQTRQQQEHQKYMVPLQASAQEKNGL
Particulars: probe substrate p-aminohippuric acid. From the text: (§1) The inhibition of cytochrome P450 (CYP) isoforms and a range of cellular transporters (except multidrug and toxin extrusion [MATE] proteins), as well as the induction of CYP isoforms were investigated using previously described methods.

Assay [2] concerns the target T2, OAT3 (Homo sapiens, UniProt Q8TCC7).
T2 sequence (Q8TCC7 1-542): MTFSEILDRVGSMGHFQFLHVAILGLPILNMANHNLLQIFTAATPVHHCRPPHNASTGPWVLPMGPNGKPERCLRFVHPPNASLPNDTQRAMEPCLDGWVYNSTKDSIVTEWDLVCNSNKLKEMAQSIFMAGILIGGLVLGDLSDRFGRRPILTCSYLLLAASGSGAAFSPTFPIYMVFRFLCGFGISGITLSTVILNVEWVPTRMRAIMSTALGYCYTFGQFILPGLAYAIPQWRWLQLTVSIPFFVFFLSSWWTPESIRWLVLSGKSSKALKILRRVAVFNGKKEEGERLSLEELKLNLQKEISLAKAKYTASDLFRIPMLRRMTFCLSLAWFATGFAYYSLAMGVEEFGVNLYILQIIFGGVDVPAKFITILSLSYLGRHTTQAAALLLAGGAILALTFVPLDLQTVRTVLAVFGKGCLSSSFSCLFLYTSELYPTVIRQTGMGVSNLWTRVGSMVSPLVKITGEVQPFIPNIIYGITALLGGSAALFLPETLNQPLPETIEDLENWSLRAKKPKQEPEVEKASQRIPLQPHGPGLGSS
The settings on record: probe substrate estrone-3-sulphate.
From the text: as §1

The target in assay [3] is T3, OCT2 (Homo sapiens, UniProt O15244).
T3 sequence (O15244 1-555): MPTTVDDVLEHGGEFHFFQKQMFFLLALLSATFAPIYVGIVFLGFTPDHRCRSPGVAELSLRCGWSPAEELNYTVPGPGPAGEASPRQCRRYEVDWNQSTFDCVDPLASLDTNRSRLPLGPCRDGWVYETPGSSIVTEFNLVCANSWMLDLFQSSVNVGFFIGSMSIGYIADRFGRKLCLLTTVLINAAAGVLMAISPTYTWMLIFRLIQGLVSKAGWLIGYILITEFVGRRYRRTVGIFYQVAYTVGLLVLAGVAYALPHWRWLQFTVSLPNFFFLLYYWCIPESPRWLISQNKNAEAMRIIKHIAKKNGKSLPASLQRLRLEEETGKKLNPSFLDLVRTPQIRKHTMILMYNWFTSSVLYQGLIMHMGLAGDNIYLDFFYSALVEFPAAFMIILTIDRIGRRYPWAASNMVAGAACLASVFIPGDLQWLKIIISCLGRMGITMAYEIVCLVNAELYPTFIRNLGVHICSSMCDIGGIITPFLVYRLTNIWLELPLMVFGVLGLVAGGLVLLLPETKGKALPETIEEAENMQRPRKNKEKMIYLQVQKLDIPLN
The settings on record: probe substrate 1-methyl-4-phenylpyridinium.
From the text: as §1

Assay [4] deals with T4, OATP1B3 (Homo sapiens, UniProt Q9NPD5).
T4 sequence (Q9NPD5 1-702): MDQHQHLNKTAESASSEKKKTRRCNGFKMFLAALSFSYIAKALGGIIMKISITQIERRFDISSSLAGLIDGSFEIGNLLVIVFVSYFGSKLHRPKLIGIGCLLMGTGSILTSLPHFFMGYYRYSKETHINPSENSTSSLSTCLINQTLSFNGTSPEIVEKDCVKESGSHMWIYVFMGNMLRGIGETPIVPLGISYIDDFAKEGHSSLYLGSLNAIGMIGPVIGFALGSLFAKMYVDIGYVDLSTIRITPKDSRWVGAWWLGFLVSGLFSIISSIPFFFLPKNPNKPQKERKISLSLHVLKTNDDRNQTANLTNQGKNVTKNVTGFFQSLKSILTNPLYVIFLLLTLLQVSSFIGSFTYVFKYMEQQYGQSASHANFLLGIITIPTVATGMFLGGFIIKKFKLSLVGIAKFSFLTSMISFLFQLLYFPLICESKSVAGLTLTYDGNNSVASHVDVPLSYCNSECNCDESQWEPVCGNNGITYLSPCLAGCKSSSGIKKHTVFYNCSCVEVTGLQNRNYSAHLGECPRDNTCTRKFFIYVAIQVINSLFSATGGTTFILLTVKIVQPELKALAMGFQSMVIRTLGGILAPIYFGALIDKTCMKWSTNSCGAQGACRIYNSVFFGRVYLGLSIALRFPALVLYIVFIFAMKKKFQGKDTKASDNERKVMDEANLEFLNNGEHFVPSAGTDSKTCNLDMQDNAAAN
The settings on record: probe substrate pravastatin.
From the text: as §1

Consider three compounds from publication PMC10661964 (Current Drug Metabolism, 2023).

SMILES strings stand for the structures. Bounds are passed on as bounds.

Consider `CC1CS(=O)(=O)CCN1n1cc(SCC(N)C(=O)O)ccc1=O` (stereo not drawn) [M-4], for which the IC50 (commonly the point on the concentration scale where inhibition reaches its midpoint) in assay [1] is above 5 µM; in assay [2] it was above 5 µM; in assay [3], above 5 µM; in assay [4], 10 µM.

Take `CC1CS(=O)(=O)CCN1/N=C/c1ccc([N+](=O)[O-])o1` (stereo not drawn) [Nifurtimox, (E)-N-(3-methyl-1,1-dioxo-1,4-thiazinan-4-yl)-1-(5-nitrofuran-2-yl) methanimine, reference compound]: the IC50 in assay [1] was above 20 µM; in assay [2], above 20 µM; in assay [3] it was above 20 µM; in assay [4], above 50 µM.

Regarding `CC1CS(=O)(=O)CCN1N` (stereo not drawn) [M-6], the IC50 is above 30 µM in assay [1], above 30 µM in assay [2], above 30 µM in assay [3] and above 50 µM in assay [4].
